For experiment [1], the system named is FAAH in small unilamellar vesicles; CXCR4 receptor; GABAB receptor in CHO cell membranes. As to the kind of experiment: BSI label-free free-solution binding assays on membrane proteins (negative controls). The settings on record: negative control compound, even the highest concentrations. The source says: Membrane-associated proteins and their interactions are of paramount interest in the design of clinical therapeutics, accounting for almost 70% of existing drug candidate targets (Krummel and Davis (2002) Current Opinion in Immunology 14: 66-74; Overington et al. (2006) Nature Reviews Drug Discovery 5: 993-996). To date, it has been difficult to perform direct binding assays on cellular membranes except by down-stream signal transduction or the use of isotope labeling methods. BSI facilitated label-free, free solution binding assays on proteoliposomes (Bracey et al. (2002) Science 298: 1793-1796; Jass et al. (2000) Biophysical Journal 79: 3153-3163) from full-length, functional membrane proteins, from both natural and recombinant sources (Kussrow et al. (2010) Chembiochem DOI: 10.1002/cbic.201000671). […]

For experiment [2], the target named is lectin Concanavalin A (ConA) (Canavalia ensiformis, UniProt P02866). The settings on record: non-binding sugar used as control, free-solution BSI with ConA; cited from earlier work.

Here are results for three compounds from patent US11293863B2, “Robust interferometer and methods of using same” (Vanderbilt University, priority 2015, dated 2022).

`C[C@H](N)C(=O)O` [L-alanine]: the BSI signal result in experiment [1] is “Little or no BSI signal”. Regarding `O=C[C@H](O)[C@@H](O)[C@@H](O)[C@H](O)CO` [galactose], the BSI binding signal result in experiment [2] is “no binding signal”. With `CC(C)CCC[C@@H](C)[C@H]1CC[C@H]2[C@@H]3CC=C4C[C@@H](O)CC[C@]4(C)[C@H]3CC[C@]12C` [cholesterol], in experiment [1], the BSI signal entry was “Little or no BSI signal”.
